In US11584747B2, “Substituted pyridopyrimidinonyl compounds useful as T cell activators” (BRISTOL-MYERS SQUIBB COMPANY, priority 2019, dated 2023):
Like-named read-outs stand apart in the source and are kept apart here.

Tests used:
human DGKζ = human DGKζ (Homo sapiens (Human), UniProt Q13574); assay: DGKζ LIPGLO assay (extruded liposome substrate, ADP-Glo luminescence); assay type: biochemical; conditions: liposome assay; read-out: DGK zeta LIPGLO IC50
[1] = tested on: human venous whole blood (IFN-γ); assay: Human whole blood IFN-γ assay; assay type: cell-based; conditions: whole blood, normalized to 3 μM reference compound as 100% activation, read-out: IFN-γ Whole Blood Normalized EC50
Description: Human venous whole blood (22.5 μL per well), obtained from healthy donors, was pre-treated with compounds for one hour at 37° C. in a humidified 95% air/5% CO2 incubator. The blood was stimulated with 2.5 μL anti-human CD3 and anti-CD28 mAb at a final concentration of 1 μg/mL each for 24 hours at 37° C. IFN-γ in the supernatants was measured using AlphLISA kit (Cat #AL217).

human DGKα [2] = molecular target: T1, human DGKα (Homo sapiens (Human), UniProt P23743); assay: DGKα LIPGLO assay (extruded liposome substrate, ADP-Glo luminescence); assay type: biochemical; conditions: liposome assay; read-out: DGK alpha LIPGLO IC50
T1 sequence (P23743 whole entry, looked up): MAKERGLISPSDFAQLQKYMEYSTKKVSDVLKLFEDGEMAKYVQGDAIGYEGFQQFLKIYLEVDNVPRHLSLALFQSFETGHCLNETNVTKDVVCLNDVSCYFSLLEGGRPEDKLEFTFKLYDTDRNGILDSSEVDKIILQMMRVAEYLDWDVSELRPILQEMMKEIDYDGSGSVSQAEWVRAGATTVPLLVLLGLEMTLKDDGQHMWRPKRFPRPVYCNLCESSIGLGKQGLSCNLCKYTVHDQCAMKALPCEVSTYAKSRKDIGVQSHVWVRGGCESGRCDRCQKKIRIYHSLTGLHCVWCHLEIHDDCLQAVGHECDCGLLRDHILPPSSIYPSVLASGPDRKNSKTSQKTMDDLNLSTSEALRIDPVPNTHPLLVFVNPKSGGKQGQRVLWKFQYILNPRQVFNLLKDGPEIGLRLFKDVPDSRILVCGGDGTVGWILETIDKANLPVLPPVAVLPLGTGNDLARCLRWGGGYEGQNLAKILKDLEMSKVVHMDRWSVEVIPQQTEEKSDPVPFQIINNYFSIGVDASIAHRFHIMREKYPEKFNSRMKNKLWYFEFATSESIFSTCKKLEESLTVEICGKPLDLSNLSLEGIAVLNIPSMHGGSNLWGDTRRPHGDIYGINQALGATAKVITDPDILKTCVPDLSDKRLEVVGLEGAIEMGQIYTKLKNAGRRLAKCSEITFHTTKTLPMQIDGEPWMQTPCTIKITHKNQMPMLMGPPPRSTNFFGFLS

whole blood (pERK) = assay: pERK Whole Blood assay (Table A; no whole-blood pERK method described); assay type: cell-based; conditions: normalized
human DGKα [3] = molecular target: T1, human DGKα; assay: DGKα ADPGLO assay (detergent/lipid micelle substrate); assay type: biochemical; conditions: truncated DGK alpha; read-out: DGK alpha ADPGLO (Truncated) IC50
Description: DGK Alpha ADPGLO (Truncated) IC50 (uM)
The detergent/lipid micelle was prepared by combining 15 g phosphatidylserine (Avanti 840035P) and 1 g diacylglycerol (8008110) and dissolving into 150 mL chloroform in a 2 L round bottom flask. Chloroform was removed under high vacuum by rotary evaporation. […] The lipid/detergent solution was split into 5 mL aliquots and stored at −80° C.

Chain of human DGKζ (Q13574 other isoform, or with tags, fused parts or gaps): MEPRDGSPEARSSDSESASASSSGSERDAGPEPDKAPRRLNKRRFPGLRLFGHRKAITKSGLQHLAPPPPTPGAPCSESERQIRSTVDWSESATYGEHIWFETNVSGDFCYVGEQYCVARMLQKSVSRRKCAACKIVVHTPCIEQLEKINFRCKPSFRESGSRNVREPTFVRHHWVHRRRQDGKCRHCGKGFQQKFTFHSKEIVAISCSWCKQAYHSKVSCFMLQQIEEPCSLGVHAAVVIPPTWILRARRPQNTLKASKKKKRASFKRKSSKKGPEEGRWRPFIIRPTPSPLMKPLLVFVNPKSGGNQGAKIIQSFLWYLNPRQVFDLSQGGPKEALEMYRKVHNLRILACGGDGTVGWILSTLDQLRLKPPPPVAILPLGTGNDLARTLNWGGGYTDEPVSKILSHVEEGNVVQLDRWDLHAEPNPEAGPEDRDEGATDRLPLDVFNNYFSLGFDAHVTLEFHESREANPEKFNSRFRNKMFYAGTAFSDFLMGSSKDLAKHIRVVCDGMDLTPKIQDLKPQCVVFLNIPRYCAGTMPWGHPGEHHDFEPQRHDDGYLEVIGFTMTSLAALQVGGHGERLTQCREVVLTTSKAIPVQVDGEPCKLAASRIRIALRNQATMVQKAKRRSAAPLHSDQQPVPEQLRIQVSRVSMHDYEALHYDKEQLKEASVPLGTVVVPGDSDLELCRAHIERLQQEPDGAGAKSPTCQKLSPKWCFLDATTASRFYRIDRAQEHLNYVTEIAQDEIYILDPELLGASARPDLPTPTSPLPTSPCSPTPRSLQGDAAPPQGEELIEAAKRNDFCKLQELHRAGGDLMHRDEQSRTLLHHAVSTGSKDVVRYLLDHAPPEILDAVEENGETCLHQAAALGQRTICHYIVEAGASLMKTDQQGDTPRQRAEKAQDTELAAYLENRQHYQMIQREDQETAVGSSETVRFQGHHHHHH

Row | SMILES | IC50 (human DGKζ) [nM] | IC50 (human DGKα [2]) [nM] | IC50 (human DGKα [3]) [nM] | EC50 [1] [nM] | IC50 (whole blood (pERK)) [nM] | EC50 ([1]; Homo sapiens) [nM]
1 | CC(c1ccc(OC(F)(F)F)c(F)c1)N1C[C@H](C)N(c2nc(=O)n(C)c3ccc(C#N)nc23)C[C@H]1C (single isomer, unassigned) [Example 160] | 250 | 110 |  | 240 | 860 | 
2 | CC(c1ccc(F)c(F)c1)N1C[C@H](C)N(c2nc(=O)n(C)c3ccc(C#N)nc23)C[C@H]1C (single isomer, unassigned) [Example 149] | 1180 | 4560 |  | 8060 | 1950 | 
3 | C[C@@H]1CN(c2nc(=O)n(C)c3ccc(C#N)nc23)[C@@H](C)CN1C(c1ccc(F)cc1)c1nc(C(C)(C)C)no1 (single isomer, unassigned) [Example 109] | 190 | 34 |  | 110 | 48 | 
4 | CC(c1ccc(C2CC2)cc1F)N1C[C@H](C)N(c2nc(=O)n(C)c3ccc(C#N)nc23)C[C@H]1C (single isomer, unassigned) [Example 168] | 150 | 230 |  | 110 | 220 | 
5 | CC(c1ccc(Cl)cc1F)N1C[C@H](C)N(c2nc(=O)n(C)c3ccc(C#N)nc23)C[C@H]1C (single isomer, unassigned) [Example 147] | 1130 | 1460 |  |  | 1000 | 
6 | CC[C@@H]1CN(c2nc(=O)n(C)c3ccc(C#N)nc23)[C@@H](C)CN1C(c1ccc(OC(F)(F)F)cc1)c1ccccn1 (single isomer, unassigned) [Example 93] | 520 |  | 18 | 170 | 670 | 
7 | CC(c1ccc(F)cc1F)N1C[C@H](C)N(c2nc(=O)n(C)c3ccc(C#N)nc23)C[C@H]1C (single isomer, unassigned) [Example 144] | 46 | 28 |  |  | 65 | 
8 | CC(c1ccc(C(F)(F)F)cc1F)N1C[C@H](C)N(c2nc(=O)n(C)c3ccc(C#N)nc23)C[C@H]1C (single isomer, unassigned) [Example 151] | 830 | 3460 |  |  | 1870 | 
9 | CC[C@H]1CN(C(C)c2cccc(OC)n2)[C@H](CC)CN1c1nc(=O)n(C)c2ccc(C#N)nc12 (stereo partly drawn) [Example 214, 4-((2S,5R)-2,5-diethyl-4-(1-(6-methoxypyridin-2-yl)ethyl)piperazin-1-yl)-1-methyl-2-oxo-1,2-dihydropyrido[3,2-d]pyrimidine-6-carbonitrile] | 6620 |  | 2010 | 20000 | 66 | 
10 | CC[C@H]1CN(C(C)c2ccc(OC(C)(C)COC)cc2)[C@H](CC)CN1c1nc(=O)n(C)c2ccc(C#N)nc12 (stereo partly drawn) [Example 188] | 310 |  | 14 | 73 | 270 | 
11 | CC[C@H]1CN(C(C)c2cnc(N3CCOCC3)nc2)[C@H](CC)CN1c1nc(=O)n(C)c2ccc(C#N)nc12 (stereo partly drawn) [Example 206, 4-((2S,5R)-2,5-diethyl-4-(1-(2-morpholinopyrimidin-5-yl)ethyl)piperazin-1-yl)-1-methyl-2-oxo-1,2-dihydropyrido[3,2-d] pyrimidine-6-carbonitrile] | 51000 |  | 3980 | 20000 | 80 | 
12 | CC(c1ccc(OC(F)(F)F)cc1F)N1C[C@H](C)N(c2nc(=O)n(C)c3ccc(C#N)nc23)C[C@H]1C (single isomer, unassigned) [Example 143] | 2120 | 1330 |  |  | 1140 | 
13 | CC[C@@H]1CN(c2nc(=O)n(C)c3ccc(C#N)nc23)[C@@H](C)CN1C(c1ccc(Cl)cc1)c1ccccn1 (single isomer, unassigned) [Example 96] |  |  | 96 | 57 | 200 | 
14 | CCC(c1ccc(OCC2CC2)cc1F)N1C[C@H](CC)N(c2nc(=O)n(C)c3ccc(C#N)nc23)C[C@H]1CC (stereo partly drawn) [Example 199, 4-((2S,5R)-4-(1-(4-(cyclopropylmethoxy)-2-fluorophenyl)propyl)-2,5-diethylpiperazin-1-yl)-1-methyl-2-oxo-1,2-dihydropyrido[3,2-d]pyrimidine-6-carbonitrile] | 920 |  | 630 | 2060 | 11300 | 

Now from value to compound, other results behind:

Row | IC50 (human DGKζ) [nM] | IC50 (human DGKα [2]) [nM] | IC50 (human DGKα [3]) [nM] | SMILES | EC50 [1] [nM] | IC50 (whole blood (pERK)) [nM] | EC50 ([1]; Homo sapiens) [nM]
15 | 100 |  | 41 | CCC(c1ccc(CN2CCOCC2)cc1)N1C[C@H](CC)N(c2nc(=O)n(C)c3ccc(C#N)nc23)C[C@H]1CC (stereo partly drawn) [Example 267, 4-((2S,5R)-2,5-diethyl-4-(1-(4-(morpholinomethyl)phenyl)propyl)piperazin-1-yl)-1-methyl-2-oxo-1,2-dihydropyrido[3,2-d]pyrimidine-6-carbonitrile] | 45 | 1020 | 
16 | 920 |  | 460 | CC[C@H]1CN(C(C)c2cccc(OC(F)F)n2)[C@H](CC)CN1c1nc(=O)n(C)c2ccc(C#N)nc12 (stereo partly drawn) [Example 241, 4-((2S,5R)-4-(1-(6-(difluoromethoxy)pyridin-2-yl)ethyl)-2,5-diethylpiperazin-1-yl)-1-methyl-2-oxo-1,2-dihydropyrido[3,2-d]pyrimidine-6-carbonitrile] | 2420 | 190 | 
17 | 110 |  | 73 | CC[C@H]1CN(C(C)c2cccc(OC(F)F)n2)[C@H](CC)CN1c1nc(=O)n(C)c2ccc(C#N)nc12 (stereo partly drawn) [Example 240, 4-((2S,5R)-4-(1-(6-(difluoromethoxy)pyridin-2-yl)ethyl)-2,5-diethylpiperazin-1-yl)-1-methyl-2-oxo-1,2-dihydropyrido[3,2-d]pyrimidine-6-carbonitrile] | 270 | 290 | 
18 | 13 |  | 2 | CCC(c1ccc(OC(F)F)cc1F)N1C[C@H](CC)N(c2nc(=O)n(C)c3ccc(C#N)nc23)C[C@H]1CC (stereo partly drawn) [Example 232, 4-((2S,5R)-4-(1-(4-(difluoromethoxy)-2-fluorophenyl)propyl)-2,5-diethylpiperazin-1-yl)-1-methyl-2-oxo-1,2-dihydropyrido[3,2-d]pyrimidine-6-carbonitrile] | 44 | 44 | 
19 | 8640 |  | 2700 | CC[C@H]1CN(C(C)c2ccc(CN3CCC[C@@H](O)C3)cc2)[C@H](CC)CN1c1nc(=O)n(C)c2ccc(C#N)nc12 (stereo partly drawn) [Example 289, 4-((2S,5R)-2,5-diethyl-4-(1-(4-(((R)-3-hydroxypiperidin-1-yl)methyl)phenyl)ethyl)piperazin-1-yl)-1-methyl-2-oxo-1,2-dihydropyrido[3,2-d]pyrimidine-6-carbonitrile] |  | 350 | 5720
20 | 290 |  | 18 | CC[C@H]1CN(C(C)c2cccc(OC(F)(F)F)n2)[C@H](CC)CN1c1nc(=O)n(C)c2ccc(C#N)nc12 (stereo partly drawn) [Example 245, 4-((2S,5R)-2,5-diethyl-4-(1-(6-(trifluoromethoxy)pyridin-2-yl)ethyl)piperazin-1-yl)-1-methyl-2-oxo-1,2-dihydropyrido[3,2-d]pyrimidine-6-carbonitrile] |  | 410 | 220
21 | 58 |  | 9 | CCC(c1ccc(C)cc1)N1C[C@H](CC)N(c2nc(=O)n(C)c3ccc(C#N)nc23)C[C@H]1CC (stereo partly drawn) [Example 236, 4-((2S,5R)-2,5-diethyl-4-(1-(p-tolyl)propyl)piperazin-1-yl)-1-methyl-2-oxo-1,2-dihydropyrido[3,2-d]pyrimidine-6-carbonitrile] | 12 | 44 | 
22 | 110 |  | 77 | CC[C@H]1CN(C(C)c2cccc(OC)n2)[C@H](CC)CN1c1nc(=O)n(C)c2ccc(C#N)nc12 (stereo partly drawn) [Example 215, 4-((2S,5R)-2,5-diethyl-4-(1-(6-methoxypyridin-2-yl)ethyl)piperazin-1-yl)-1-methyl-2-oxo-1,2-dihydropyrido[3,2-d]pyrimidine-6-carbonitrile] | 170 | 20000 | 
23 | 2430 |  | 200 | CC[C@H]1CN(C(C)c2ccc(CN3CCN(C(C)=O)CC3)cc2)[C@H](CC)CN1c1nc(=O)n(C)c2ccc(C#N)nc12 (stereo partly drawn) [Example 283, 4-((2S,5R)-4-(1-(4-((4-acetylpiperazin-1-yl)methyl)phenyl)ethyl)-2,5-diethylpiperazin-1-yl)-1-methyl-2-oxo-1,2-dihydropyrido[3,2-d]pyrimidine-6-carbonitrile] | 1250 | 6260 | 
24 | 430 |  | 110 | CC[C@H]1CN(C(C)c2ccc(CN3C[C@@H](C)O[C@@H](C)C3)cc2)[C@H](CC)CN1c1nc(=O)n(C)c2ccc(C#N)nc12 (stereo partly drawn) [Example 291, 4-((2S,5R)-4-(1-(4-(((2S,6R)-2,6-dimethylmorpholino)methyl)phenyl)ethyl)-2,5-diethylpiperazin-1-yl)-1-methyl-2-oxo-1,2-dihydropyrido[3,2-d]pyrimidine-6-carbonitrile] |  | 390 | 
25 | 780 |  | 270 | CCC(c1ccc(C(C)(C)C#N)cc1)N1C[C@H](CC)N(c2nc(=O)n(C)c3ccc(C#N)nc23)C[C@H]1CC (stereo partly drawn) [Example 252, 4-((2S,5R)-4-(1-(4-(2-cyanopropan-2-yl)phenyl)propyl)-2,5-diethylpiperazin-1-yl)-1-methyl-2-oxo-1,2-dihydropyrido[3,2-d]pyrimidine-6-carbonitrile] |  | 4280 | 
